Data: PubChem BioAssay (NCI)
Where “and” joins values, the source holds several entries; their conditions need not be identical. Equal values may be shown once.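 All cell lines were grown in 96-well plates and treated with compound for 48 hours. The concentration for 50% growth inhibition is given as GI50. Definition used: TGI = concentration required for complete inhibition of growth.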

Experiments:
Test in all cases: NCI tumour cell line growth inhibition, 48 h
BT-549 breast = tested on: BT-549 breast
DMS 273 small cell lung = tested on: DMS 273 small cell lung
HOP-18 NSCLC = tested on: HOP-18 NSCLC
P388 leukemia = tested on: P388 leukemia
SN12K1 renal = tested on: SN12K1 renal
DMS 114 small cell lung = tested on: DMS 114 small cell lung
KM20L2 colon = tested on: KM20L2 colon
LXFL 529 NSCLC = tested on: LXFL 529 NSCLC
M19-MEL melanoma = tested on: M19-MEL melanoma
RXF-631 renal = tested on: RXF-631 renal
MDA-N = tested on: MDA-N

SMILES | GI50 (BT-549 breast) [µM] | TGI (BT-549 breast) | TGI (DMS 273 small cell lung) [µM] | TGI (HOP-18 NSCLC) [µM] | TGI (P388 leukemia) [µM] | TGI (SN12K1 renal) [µM] | TGI (DMS 114 small cell lung) [µM] | TGI (KM20L2 colon) [µM] | TGI (LXFL 529 NSCLC) [µM] | TGI (M19-MEL melanoma) [µM] | TGI (RXF-631 renal) [µM] | TGI (MDA-N) | GI50 (MDA-N)
CCCCc1oc2ccccc2c1C(=O)c1cc(I)c(OCCN(CC)CC)c(I)c1 | 3.26 | 9.38 µM | 7.74 | 1.29 | 11.2 | 7.45 | – | – | – | – | – | – | –
c1ccc([P+](CCC[P+](c2ccccc2)(c2ccccc2)c2ccccc2)(c2ccccc2)c2ccccc2)cc1 | 7.44 | > 100 µM | 47.9 | > 100 | – | – | 71 | > 100 | > 100 | > 100 | > 100 | – | –
O=C1c2c(O)cccc2C(C(=O)CCCC(=O)C2c3cccc(O)c3C(=O)c3c(O)cccc32)c2cccc(O)c21 | – | 4.74 µM | 1.26 | 0.828 | – | – | 0.502 | 8.68 | 0.48 | 4.17 | 3.99 | 3.39 µM | –
CO[C@@]12[C@H](COC(N)=O)C3=C(C(=O)C(C)=C(N)C3=O)N1C[C@@H]1N[C@@H]12 | 0.799 | 9.38 µM and 6.85 µM and 6.4 µM | 3.6 | 7.59 | 9.62 | 7.65 | 5.08 | 10.2 | 7.53 | – | – | 7.44 µM and 19.1 µM | 2.11 µM and 2.67 µM
C[C@@]1(CBr)C[C@@](C)(/C=C/Cl)[C@@H](Cl)C[C@H]1Cl | – | – | 22.8 | 26.4 | – | – | 25.3 | 24.6 | 21.7 | 25.9 | 24.2 | – | –
